Data reported in ChEMBL document CHEMBL6078668, “Synthesis and biological evaluation of lappaconitine analogues as potential anti-neuroinflammatory agents by side chain modification and scaffold hopping strategy” (Bioorg Med Chem, 2025).

How the values were obtained:
[1] = Cytotoxicity against C57BL/6 mouse BV-2 cells assessed as survival rate at 30 uM incubated for 24 hrs by MTT assay relative to control; assay type: toxicity, cell-based; conditions: read-out: Survival
BV-2 = test: Anti-neuroinflammatory activity against LPS-stimulated C57BL/6 mouse BV-2 cells assessed as inhibition of NO release at 30 uM preincubated with compound for 4 hrs followed by LPS addition and measured after 24 hrs by Griess reagent based assay relative to control; assay type: functional; conditions: C57BL/6, BV-2, time 28 hrs

| SMILES | viability at 24 h, 30 µM [1] [%] | inhibition at 30 µM (BV-2) [%] |
| --- | --- | --- |
| CCN1C[C@]2(COC(=O)c3ccccc3N)CC[C@H](OC)[C@]34C1[C@@H](C[C@H]23)[C@@]1(O)C[C@H](OC)[C@H]2C[C@@H]4[C@]1(O)[C@H]2OC | 91.9 | 22 |
| CCN1C[C@]2(OC(=O)c3ccccc3NC(=O)S(=O)(=O)c3ccc4c(c3)CCC4)CC[C@H](OC)[C@]34C1[C@@H](C[C@H]23)[C@@]1(O)C[C@H](OC)[C@H]2C[C@@H]4[C@]1(O)[C@H]2OC | 94.4 | 18.1 |
| CCCC(C)C(=O)Nc1ccccc1C(=O)O[C@@]12CC[C@H](OC)[C@]34C([C@@H](C[C@H]13)[C@@]1(O)C[C@H](OC)[C@H]3C[C@@H]4[C@]1(O)[C@H]3OC)N(CC)C2 (some centres not stated) | 108 | 57.8 |
| CCN1C[C@]2(OC(=O)c3ccccc3NC(=O)S(=O)(=O)Cc3ccc([N+](=O)[O-])cc3)CC[C@H](OC)[C@]34C1[C@@H](C[C@H]23)[C@@]1(O)C[C@H](OC)[C@H]2C[C@@H]4[C@]1(O)[C@H]2OC | 98.9 | 22.7 |
| CCN1C[C@]2(OC(=O)c3ccccc3NC(=O)S(=O)(=O)c3cccc4cccnc34)CC[C@H](OC)[C@]34C1[C@@H](C[C@H]23)[C@@]1(O)C[C@H](OC)[C@H]2C[C@@H]4[C@]1(O)[C@H]2OC | 103 | 46.2 |
| CCN1C[C@]2(OC(=O)c3ccccc3NC(=O)S(=O)(=O)c3ccc(C(C)=O)cc3)CC[C@H](OC)[C@]34C1[C@@H](C[C@H]23)[C@@]1(O)C[C@H](OC)[C@H]2C[C@@H]4[C@]1(O)[C@H]2OC | 92.6 | 18 |
| CCN1C[C@]2(OC(=O)c3ccccc3NC(=O)C3CC3)CC[C@H](OC)[C@]34C1[C@@H](C[C@H]23)[C@@]1(O)C[C@H](OC)[C@H]2C[C@@H]4[C@]1(O)[C@H]2OC | 104 | 27.7 |
| CCc1ccc(C(=O)Nc2ccccc2C(=O)O)cc1 | 101 | 11.9 |
| CCN1C[C@]2(OC(=O)c3ccccc3NC(=O)S(=O)(=O)c3ccc(OC)c(F)c3)CC[C@H](OC)[C@]34C1[C@@H](C[C@H]23)[C@@]1(O)C[C@H](OC)[C@H]2C[C@@H]4[C@]1(O)[C@H]2OC | 103 | 11.1 |
| CCN1C[C@]2(COC(=O)c3ccccc3NS(=O)(=O)c3cccc(F)c3)CC[C@H](OC)[C@]34C1[C@@H](C[C@H]23)[C@@]1(O)C[C@H](OC)[C@H]2C[C@@H]4[C@]1(O)[C@H]2OC | 102 | 20.1 |
| CCN1C[C@]2(OC(=O)c3ccccc3NC(=O)S(=O)(=O)c3ccccc3Br)CC[C@H](OC)[C@]34C1[C@@H](C[C@H]23)[C@@]1(O)C[C@H](OC)[C@H]2C[C@@H]4[C@]1(O)[C@H]2OC | 92.6 | 7.3 |
| O=c1c(O)c(-c2ccc(O)c(O)c2)oc2cc(O)cc(O)c12 [QUERCETIN] | 99.5 | 76.7 |
| CCN1C[C@]2(COC(=O)c3ccccc3NS(=O)(=O)c3ccc(Br)s3)CC[C@H](OC)[C@]34C1[C@@H](C[C@H]23)[C@@]1(O)C[C@H](OC)[C@H]2C[C@@H]4[C@]1(O)[C@H]2O | 104 | 26.2 |
| CCN1C[C@]2(OC(=O)c3ccccc3NC(=O)S(=O)(=O)c3cccc(OC)c3)CC[C@H](OC)[C@]34C1[C@@H](C[C@H]23)[C@@]1(O)C[C@H](OC)[C@H]2C[C@@H]4[C@]1(O)[C@H]2OC | 102 | 23.5 |
| CCN1C[C@]2(OC(=O)c3ccccc3NC(=O)c3cccc(C)c3)CC[C@H](OC)[C@]34C1[C@@H](C[C@H]23)[C@@]1(O)C[C@H](OC)[C@H]2C[C@@H]4[C@]1(O)[C@H]2OC | 112 | 15.6 |
| C=C(C)C(=O)Nc1ccccc1C(=O)O[C@@]12CC[C@H](OC)[C@]34C([C@@H](C[C@H]13)[C@@]1(O)C[C@H](OC)[C@H]3C[C@@H]4[C@]1(O)[C@H]3OC)N(CC)C2 | 94.2 | 12.9 |
| CCN1C[C@]2(OC(=O)c3ccccc3NC(=O)S(=O)(=O)c3ccc(F)cc3C)CC[C@H](OC)[C@]34C1[C@@H](C[C@H]23)[C@@]1(O)C[C@H](OC)[C@H]2C[C@@H]4[C@]1(O)[C@H]2OC | 92.7 | 32.2 |
| CCN1C[C@]2(OC(=O)c3ccccc3NC(=O)c3ccc(I)cc3)CC[C@H](OC)[C@]34C1[C@@H](C[C@H]23)[C@@]1(O)C[C@H](OC)[C@H]2C[C@@H]4[C@]1(O)[C@H]2OC | 100 | 36.1 |

| SMILES | viability at 24 h, 30 µM [1] [%] | inhibition at 30 µM (BV-2) [%] |
| --- | --- | --- |
| CCN1C[C@]2(OC(=O)c3ccccc3NC(=O)S(=O)(=O)c3cccc(Cl)c3)CC[C@H](OC)[C@]34C1[C@@H](C[C@H]23)[C@@]1(O)C[C@H](OC)[C@H]2C[C@@H]4[C@]1(O)[C@H]2OC | 95.4 | 13.9 |
| CCN1C[C@]2(OC(=O)c3ccccc3NC(=O)C3CCOCC3)CC[C@H](OC)[C@]34C1[C@@H](C[C@H]23)[C@@]1(O)C[C@H](OC)[C@H]2C[C@@H]4[C@]1(O)[C@H]2OC | 103 | 36.3 |
| CCN1C[C@]2(OC(=O)c3ccccc3NC(=O)S(=O)(=O)c3ccc(C)cc3)CC[C@H](OC)[C@]34C1[C@@H](C[C@H]23)[C@@]1(O)C[C@H](OC)[C@H]2C[C@@H]4[C@]1(O)[C@H]2OC | 102 | 31.7 |
| CCN1C[C@]2(OC(=O)c3ccccc3NC(=O)S(=O)(=O)c3cncc(Br)c3)CC[C@H](OC)[C@]34C1[C@@H](C[C@H]23)[C@@]1(O)C[C@H](OC)[C@H]2C[C@@H]4[C@]1(O)[C@H]2OC | 91.5 | 20.3 |
| CCN1C[C@]2(OC(=O)c3ccccc3NC(=O)S(=O)(=O)c3ccccc3Cl)CC[C@H](OC)[C@]34C1[C@@H](C[C@H]23)[C@@]1(O)C[C@H](OC)[C@H]2C[C@@H]4[C@]1(O)[C@H]2OC | 100 | 7.8 |
| CCN1C[C@]2(OC(=O)c3ccccc3NC(=O)c3ccc(Cl)cc3)CC[C@H](OC)[C@]34C1[C@@H](C[C@H]23)[C@@]1(O)C[C@H](OC)[C@H]2C[C@@H]4[C@]1(O)[C@H]2OC | 105 | 32.3 |
| CCN1C[C@]2(OC(=O)c3ccccc3NC(=O)c3ccc(Br)cc3)CC[C@H](OC)[C@]34C1[C@@H](C[C@H]23)[C@@]1(O)C[C@H](OC)[C@H]2C[C@@H]4[C@]1(O)[C@H]2OC | 102 | 21.3 |
| CCN1C[C@]2(OC(=O)c3ccccc3NC(=O)C3CCCO3)CC[C@H](OC)[C@]34C1[C@@H](C[C@H]23)[C@@]1(O)C[C@H](OC)[C@H]2C[C@@H]4[C@]1(O)[C@H]2OC (some centres not stated) | 108 | 14.5 |
| CCN1C[C@]2(OC(=O)c3ccccc3NC(=O)S(=O)(=O)c3cc(F)c(F)cc3F)CC[C@H](OC)[C@]34C1[C@@H](C[C@H]23)[C@@]1(O)C[C@H](OC)[C@H]2C[C@@H]4[C@]1(O)[C@H]2OC | 108 | 10.5 |
| CCN1C[C@]2(OC(=O)c3ccccc3NC(=O)S(=O)(=O)c3ccc(Cl)cc3F)CC[C@H](OC)[C@]34C1[C@@H](C[C@H]23)[C@@]1(O)C[C@H](OC)[C@H]2C[C@@H]4[C@]1(O)[C@H]2OC | 99.8 | 14.9 |
| CCN1C[C@]2(OC(=O)c3ccccc3NC(C)=O)CC[C@H](OC)[C@]34C1[C@@H](C[C@H]23)[C@@]1(O)C[C@H](OC)[C@H]2C[C@@H]4[C@]1(O)[C@H]2OC | 98.2 | 25.1 |
| CCCCC(CC)C(=O)Nc1ccccc1C(=O)O[C@@]12CC[C@H](OC)[C@]34C([C@@H](C[C@H]13)[C@@]1(O)C[C@H](OC)[C@H]3C[C@@H]4[C@]1(O)[C@H]3OC)N(CC)C2 (some centres not stated) | 95.9 | 38.2 |
| CCN1C[C@]2(OC(=O)c3ccccc3NC(=O)S(=O)(=O)c3ccc(-c4ccccc4)cc3)CC[C@H](OC)[C@]34C1[C@@H](C[C@H]23)[C@@]1(O)C[C@H](OC)[C@H]2C[C@@H]4[C@]1(O)[C@H]2OC | 102 | 41.9 |
| CCN1C[C@]2(COC(=O)c3ccccc3NS(=O)(=O)c3cccc(F)c3)CC[C@H](OC)[C@]34C1[C@@H](C[C@H]23)[C@@]1(O)C[C@H](OC)[C@H]2C[C@@H]4[C@]1(O)[C@H]2O | 106 | 17.9 |
| CCN1C[C@]2(OC(=O)c3ccccc3NC(=O)c3ccc(OC)cc3)CC[C@H](OC)[C@]34C1[C@@H](C[C@H]23)[C@@]1(O)C[C@H](OC)[C@H]2C[C@@H]4[C@]1(O)[C@H]2OC | 100 | 45.2 |
| CCN1C[C@]2(OC(=O)c3ccccc3NC(=O)C(C)C)CC[C@H](OC)[C@]34C1[C@@H](C[C@H]23)[C@@]1(O)C[C@H](OC)[C@H]2C[C@@H]4[C@]1(O)[C@H]2OC | 105 | 8.9 |
| CCCCCCC(=O)Nc1ccccc1C(=O)O[C@@]12CC[C@H](OC)[C@]34C([C@@H](C[C@H]13)[C@@]1(O)C[C@H](OC)[C@H]3C[C@@H]4[C@]1(O)[C@H]3OC)N(CC)C2 | 100 | 30 |
| CCN1C[C@]2(OC(=O)c3ccccc3NC(=O)S(=O)(=O)c3cccc(Br)c3)CC[C@H](OC)[C@]34C1[C@@H](C[C@H]23)[C@@]1(O)C[C@H](OC)[C@H]2C[C@@H]4[C@]1(O)[C@H]2OC | 102 | 10 |
